In patent publication US9593097B2, “Axl inhibitors” (Pfizer Inc., priority 2014, dated 2017):
Read-outs that look alike come from different tables or passages of the source.

What was measured:
[1] = biological target: Axl phosphorylation in 293MSR-AxlWT6 cells (Homo sapiens (Human), UniProt P30530); experiment: Cellular Axl phosphorylation ELISA assay (Gas6-stimulated 293MSR-AxlWT6 cells); assay type: cell-based; settings: read-out: CELL AXL IC50
Protocol: Cellular Axl Phosphorylation ELISA Assay
After 6-7 hrs in tissue culture incubator at 37° C. 5% CO2, medium was removed, serum-free medium was added (with 0.04% bovine serum albumin) and plates were returned to incubator where they remained overnight. […] Media was then removed and lysis buffer was added to wells and shaken at 4° C. for 30 min to generate protein lysates. Subsequently, phosphorylation of Axl was assessed by a sandwich ELISA method using a DuoSet IC Human Phospho-Axl ELISA assay kit (R&D System), an immobilized mouse anti-human Axl antibody and an anti-phospho-tyrosine-HRP antibody as a detection antibody. Antibody-coated plates were (a) incubated in presence of protein lysates at room temperature for 2 hrs, (b) washed seven times in 0.1% Tween 20 in PBS, (c) incubated with secondary antibody (a horseradish peroxidase-conjugated […]) for 2 hrs, (d) washed seven times again, (e) TMB peroxidase substrate (Bio-Rad) was added to initiate a colorimetric reaction and stopped by adding 0.2 N H2SO4, and (f) measured at OD 450 nm using a spectrophotometer. IC50 values were calculated by concentration-response curve fitting using a four-parameter analytic method and reported in μM.
For Table 4B, IC50 values were calculated by concentration-response curve fitting using a four-parameter analytic method and reported in nM.

[2] = biological target: Human wild-type receptor tyrosine kinase protein Axl (residues 505-811) (Homo sapiens (Human), UniProt P30530); settings: read-out: ENZYME AXL KI; Table 4B
Chain of Human wild-type receptor tyrosine kinase protein Axl (residues 505-811) (P30530 505-811): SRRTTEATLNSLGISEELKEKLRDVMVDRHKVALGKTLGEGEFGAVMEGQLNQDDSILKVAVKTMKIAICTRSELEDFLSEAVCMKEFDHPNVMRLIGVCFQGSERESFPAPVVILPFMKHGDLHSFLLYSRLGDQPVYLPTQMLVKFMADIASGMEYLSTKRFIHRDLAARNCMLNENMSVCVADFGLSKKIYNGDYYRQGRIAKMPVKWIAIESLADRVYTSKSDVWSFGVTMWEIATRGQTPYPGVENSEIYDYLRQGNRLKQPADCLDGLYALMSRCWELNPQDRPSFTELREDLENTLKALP

Chain of Axl phosphorylation in 293MSR-AxlWT6 cells (P30530 26-894): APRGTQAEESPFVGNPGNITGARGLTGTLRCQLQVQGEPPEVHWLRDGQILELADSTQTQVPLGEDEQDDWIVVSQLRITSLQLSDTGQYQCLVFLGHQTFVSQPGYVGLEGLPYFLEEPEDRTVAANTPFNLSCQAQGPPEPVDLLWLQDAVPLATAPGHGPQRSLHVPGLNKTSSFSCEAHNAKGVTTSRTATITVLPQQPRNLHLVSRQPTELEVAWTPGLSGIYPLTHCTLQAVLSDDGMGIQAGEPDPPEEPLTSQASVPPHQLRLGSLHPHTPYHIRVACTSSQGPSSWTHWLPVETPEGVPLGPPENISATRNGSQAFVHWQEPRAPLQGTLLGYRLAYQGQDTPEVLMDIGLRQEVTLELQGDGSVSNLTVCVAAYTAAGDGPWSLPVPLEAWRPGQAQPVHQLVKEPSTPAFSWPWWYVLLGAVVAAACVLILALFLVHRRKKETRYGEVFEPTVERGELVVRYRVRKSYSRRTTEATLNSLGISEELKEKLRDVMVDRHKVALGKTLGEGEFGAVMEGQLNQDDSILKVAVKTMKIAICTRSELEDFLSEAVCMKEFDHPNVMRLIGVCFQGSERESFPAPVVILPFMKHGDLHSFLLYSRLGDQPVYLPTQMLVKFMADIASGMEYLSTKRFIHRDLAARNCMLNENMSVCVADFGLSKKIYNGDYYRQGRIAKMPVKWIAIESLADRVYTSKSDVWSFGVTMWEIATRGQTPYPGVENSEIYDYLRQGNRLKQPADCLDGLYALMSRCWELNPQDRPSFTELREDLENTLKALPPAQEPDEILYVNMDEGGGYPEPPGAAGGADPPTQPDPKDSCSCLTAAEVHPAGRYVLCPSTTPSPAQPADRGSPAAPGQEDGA

| Structure (SMILES) | IC50 ([1]; Table 4B) [nM] | Ki [2] [nM] | IC50 ([1]; Table 4A) [nM] |
| --- | --- | --- | --- |
| COc1ccnc2[nH]cc(C3CCN(c4cc(C(=O)N[C@H](C)CO)nc(OC[C@H]5CCCO5)n4)CC3)c12 [Example 459, N-[(2R)-1-hydroxypropan-2-yl]-6-[4-(4-methoxy-1H-pyrrolo[2,3-b]pyridin-3-yl)piperidin-1-yl]-2-[(2R)-tetrahydrofuran-2-ylmethoxy]pyrimidine-4-carboxamide] | 0.272 | < 0.013 |  |
| COc1ccnc2[nH]cc(C3CCN(c4nc(OC[C@H]5C[C@H]5C#N)nc(C(=O)NC56CC(C5)C6)n4)CC3)c12 (single isomer, unassigned) [Example 504] | 0.125 | < 0.082 |  |
| COc1ccnc2[nH]nc(C3CCN(c4nc(OC[C@H]5C[C@H]5C#N)nc(C(=O)NC5CCC5)n4)CC3)c12 [Example 501, 4-{[(1S,2R)-2-cyanocyclopropyl]methoxy}-N-cyclobutyl-6-[4-(4-methoxy-1H-pyrazolo[3,4-b]pyridin-3-yl)piperidin-1-yl]-1,3,5-triazine-2-carboxamide] | 1.07 | < 0.412 |  |
| COC[C@@H](C)Oc1nc(C(=O)NC23CC(C2)C3)nc(N2CCC(c3c[nH]c4nccc(OC)c34)CC2)n1 (single isomer, unassigned) [Example 505] | 0.409 | < 0.082 |  |
| COC[C@@H](C)Oc1nc(C(=O)NC2CCC2)nc(N2CCC(c3c[nH]c4nccc(OC)c34)CC2)n1 [Example 502, N-cyclobutyl-4-{[(2R)-1-methoxypropan-2-yl]oxy}-6-[4-(4-methoxy-1H-pyrrolo[2,3-b]pyridin-3-yl)piperidin-1-yl]-1,3,5-triazine-2-carboxamide] | 0.132 | < 0.082 |  |
| C[C@H](NC(=O)c1nc(OCC2CC2)nc(N2CCC(COc3cc(-c4cn(C)cn4)cnc3N)CC2)n1)C(F)(F)F [Example 391, 4-[4-({[2-amino-5-(1-methyl-1H-imidazol-4-yl)pyridin-3-yl]oxy}methyl)piperidin-1-yl]-6-(cyclopropylmethoxy)-N-[(2S)-1,1,1-trifluoropropan-2-yl]-1,3,5-triazine-2-carboxamide] | 0.143 | < 0.013 |  |
| COc1ccnc2[nH]cc(C3CCN(c4cc(C(=O)N[C@H](C)CO)nc(OCC5(C#N)CC5)n4)CC3)c12 [Example 387, 2-[(1-cyanocyclopropyl)methoxy]-N-[(2R)-1-hydroxypropan-2-yl]-6-[4-(4-methoxy-1H-pyrrolo[2,3-b]pyridin-3-yl)piperidin-1-yl]pyrimidine-4-carboxamide] | 0.152 | < 0.018 |  |
| CCOc1nc(C(=O)NC2CCC2)cc(N2CCC(c3nc(C(N)=O)ccc3OCCN(C)C)CC2)n1 [Example 2, 6-(4-{6-carbamoyl-3-[2-(dimethylamino)ethoxy]pyridin-2-yl}piperidin-1-yl)-N-cyclobutyl-2-ethoxypyrimidine-4-carboxamide] |  |  | 246 |
| COC[C@@H](C)Oc1nc(C(=O)NCC2CC2)nc(N2CCC(c3ccc(N)c(C(N)=O)n3)CC2)n1 [Example 58, 4-[4-(5-amino-6-carbamoylpyridin-2-yl)piperidin-1-yl]-N-(cyclo-propylmethyl)-6-{[(2R)-1-methoxypropan-2-yl]oxy}-1,3,5-triazine-2-carboxamide] |  |  | 23.8 |
| COC[C@@H](C)Oc1nc(C(=O)NC23CC(C2)C3)cc(N2CCC(COc3nc(C)cnc3N)CC2)n1 [Example 24, 6-(4-{[(3-amino-6-methylpyrazin-2-yl)oxy]methyl}piperidin-1-yl)-N-(bicyclo[1.1.1]pent-1-yl)-2-{[(2R)-1-methoxypropan-2-yl]oxy}pyrimidine-4-carboxamide] |  |  | 1.92 |
| COc1ccnc2[nH]cc(C3CCN(c4nc(OC[C@H]5C[C@H]5C#N)nc(C(=O)NC5(C)CCC5)n4)CC3)c12 [Example 378, 4-{[(1S,2R)-2-cyanocyclopropyl]methoxy}-6-[4-(4-methoxy-1H-pyrrolo[2,3-b]pyridin-3-yl)piperidin-1-yl]-N-(1-methylcyclobutyl)-1,3,5-triazine-2-carboxamide] |  |  | 0.24 |
| COC[C@@H](C)Oc1nc(C(=O)NC2CCC2)cc(N2CCC(c3cccc(C(N)=O)n3)CC2)n1 [Example 11, 6-[4-(6-carbamoylpyridin-2-yl)piperidin-1-yl]-N-cyclobutyl-2-{[(2R)-1-methoxypropan-2-yl]oxy}pyrimidine-4-carboxamide] |  |  | 10.2 |
| N#CC1(COc2nc(C(=O)NCC(F)(F)F)nc(N3CCC(COc4cccnc4N)CC3)n2)CC1 [Example 91, 4-(4-{[(2-aminopyridin-3-yl)oxy]methyl}piperidin-1-yl)-6-[(1-cyanocyclopropyl)methoxy]-N-(2,2,2-trifluoroethyl)-1,3,5-triazine-2-carboxamide] |  |  | 64.9 |
| N#CC1(COc2nc(C(=O)NC34CC(C3)C4)nc(N3CCC(c4n[nH]c5ncccc45)CC3)n2)CC1 [Example 59, N-(bicyclo[1.1.1]pent-1-yl)-4-[(1-cyanocyclopropyl)methoxy]-6-[4-(1H-pyrazolo[3,4-b]pyridin-3-yl)piperidin-1-yl]-1,3,5-triazine-2-carboxamide] |  |  | 2.74 |
| CS(=O)(=O)COc1cnc2[nH]nc(C3CCN(c4cc(C(=O)NC56CC(C5)C6)nc(OC[C@H]5C[C@H]5C#N)n4)CC3)c2c1 [Example 77, N-(bicyclo[1.1.1]pent-1-yl)-2-{[(1S,2R)-2-cyanocyclopropyl]methoxy}-6-(4-{5-[(methylsulfonyl)methoxy]-1H-pyrazolo[3,4-b]pyridin-3-yl}piperidin-1-yl)pyrimidine-4-carboxamide] |  |  | 42.8 |
| CC(C)(C)NC(=O)c1cc(N2CCC(c3n[nH]c4ncncc34)CC2)nc(OC[C@H]2C[C@H]2C#N)n1 [Example 48, N-tert-butyl-2-{[(1S,2R)-2-cyanocyclopropyl]methoxy}-6-[4-(1H-pyrazolo[3,4-d]pyrimidin-3-yl)piperidin-1-yl]pyrimidine-4-carboxamide] |  |  | 38.1 |
| COC[C@@H](C)Oc1nc(C(=O)NCC(C)(C)O)cc(N2CCC(c3ccc(N)c(C(N)=O)n3)CC2)n1 [Example 8, 6-[4-(5-amino-6-carbamoylpyridin-2-yl)piperidin-1-yl]-N-(2-hydroxy-2-methylpropyl)-2-{[(2R)-1-methoxypropan-2-yl]oxy}pyrimidine-4-carboxamide] |  |  | 77.9 |
| COc1ccnc2[nH]nc(C3CCN(c4cc(C(=O)N[C@H](C)CO)nc(OCc5ccccc5)n4)CC3)c12 [Example 415, 2-(benzyloxy)-N-[(2R)-1-hydroxypropan-2-yl]-6-[4-(4-methoxy-1H-pyrazolo[3,4-b]pyridin-3-yl)piperidin-1-yl]pyrimidine-4-carboxamide] | 0.052 | < 0.013 |  |
| CC(CN(C)C)NC(=O)c1cc(N2CCC(c3ccc(N)c(C(N)=O)n3)CC2)nc(OCC2CC2)n1 (centres unmarked) [Example 34, 6-[4-(5-amino-6-carbamoylpyridin-2-yl)piperidin-1-yl]-2-(cyclopropyl-methoxy)-N-[1-(dimethylamino)propan-2-yl]pyrimidine-4-carboxamide] |  |  | 30.5 |
| N#C[C@@H]1C[C@@H]1COc1nc(C(=O)NCC(F)(F)F)nc(N2CCC(c3ccc(N)c(C(N)=O)n3)CC2)n1 [Example 89, 4-[4-(5-amino-6-carbamoylpyridin-2-yl)piperidin-1-yl]-6-{[(1S,2R)-2-cyanocyclopropyl]methoxy}-N-(2,2,2-trifluoroethyl)-1,3,5-triazine-2-carboxamide] |  |  | 134 |
| COC[C@@H](C)Oc1nc(C(=O)NC23CC(C2)C3)nc(N2CCC(c3ccc(N)c(C(N)=O)n3)CC2)n1 [Example 54, 4-[4-(5-amino-6-carbamoylpyridin-2-yl)piperidin-1-yl]-N-(bicyclo[1.1.1]pent-1-yl)-6-{[(2R)-1-methoxypropan-2-yl]oxy}-1,3,5-triazine-2-carboxamide] |  |  | 5.27 |
| C[C@H](CO)NC(=O)c1cc(N2CCC(c3n[nH]c4ncccc34)CC2)nc(OCC2CC(F)(F)C2)n1 [Example 47, 2-[(3,3-difluoro-cyclobutyl)methoxy]-N-[(2R)-1-hydroxypropan-2-yl]-6-[4-(1H-pyrazolo[3,4-b]pyridin-3-yl)piperidin-1-yl]pyrimidine-4-carboxamide] |  |  | 3.84 |
| C[C@H](CO)Oc1nc(C(=O)NC23CC(C2)C3)cc(N2CCC(c3n[nH]c4ncccc34)CC2)n1 [Example 69, N-(bicyclo[1.1.1]pent-1-yl)-2-{[(2R)-1-hydroxypropan-2-yl]oxy}-6-[4-(1H-pyrazolo[3,4-b]pyridin-3-yl)piperidin-1-yl]pyrimidine-4-carboxamide] |  |  | 228 |
| C[C@@H](O)COc1nc(C(=O)NC23CC(C2)C3)cc(N2CCC(c3n[nH]c4ncccc34)CC2)n1 [Example 70, N-(bicyclo[1.1.1]pent-1-yl)-2-[(2R)-2-hydroxypropoxy]-6-[4-(1H-pyrazolo[3,4-b]pyridin-3-yl)piperidin-1-yl]pyrimidine-4-carboxamide] |  |  | 40.8 |
